Structures are written as SMILES.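 Assay format: 96-well plates, 48-hour exposure. Here, GI50 denotes the concentration required for 50% inhibition of growth.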 Active and inactive are the calls of the source. Cut-off read from the data, not from the text of the source: active = GI50 up to about 1.1 µM and inactive = higher. Some results are limits rather than exact numbers.

What is called GI50 is the concentration that inhibits growth by half.

What all share (assay): DTP human tumour cell line panel, 48 h
Assay [1] has as its system CAKI-1.
In assay [2] the test system is CCRF-CEM.
Assay [3] concerns DU-145.
In assay [4] the test system is HCT-15.
Assay [5] has as its system HL-60.
The subject of assay [6] is LOX IMVI.
The subject of assay [7] is MDA-MB-435.
The subject of assay [8] is MOLT-4.
In assay [9] the test system is NCI-H23.
The subject of assay [10] is NCI/ADR-RES.
The subject of assay [11] is OVCAR-4.
In assay [12] the test system is SF-268.
The subject of assay [13] is SF-295.
Assay [14] concerns SK-MEL-2.
Assay [15] deals with SNB-19.
The test system of assay [16] is SNB-75.
Assay [17] has as its system SR.
The subject of assay [18] is TK-10.
Assay [19] has as its system UACC-257.
Assay [20] has as its system COLO 205.

Regarding `CC(C)CCCCCCCCCCCCC(=O)NCC(=O)NC1C(O)C(O)C(Nc2[nH]cnc3ncnc2-3)OC1C(O)CO` (stereo unspecified), the GI50 in [1] is 0.000472 µM (active); in [2], 0.0568 µM (active); in assay [3] it was 0.19 µM (active); in assay [4], 0.0653 µM; in assay [5] it was 0.00057 µM (active); in [6], 0.000508 µM (active). Moreover, the GI50 in assay [7] was 0.224 µM (active); in assay [8], 0.0121 µM (active); in assay [9], 0.00125 µM (active); in [10], 0.00403 µM (active); in assay [11], 0.000492 µM (active); in [12], 0.00359 µM (active). Also, the GI50 is 0.000604 µM (active) in [13]; 0.00579 µM (active) in assay [14]; 0.000564 µM (active) in assay [15]; 0.000441 µM (active) in assay [16]; 0.426 µM (active) in assay [17]; 0.179 µM (active) in [18]. For the same compound, the GI50 in [19] is 0.000605 µM (active).

On to `c1ccc(CN2CCC(CNc3ncnc4ccccc34)C2)cc1` (stereo unspecified), for which the GI50 in [1] was > 100 µM (inactive); in [2], 41 µM (inactive); in [20] it was 29.5 µM (inactive); in assay [3], > 100 µM (inactive); in [4] it was over 100 µM; in assay [5], 25.8 µM (inactive). Besides, the GI50 is 45.3 µM (inactive) in assay [6]; 45 µM (inactive) in assay [7]; 34.4 µM (inactive) in assay [8]; 40.3 µM (inactive) in assay [9]; 61.9 µM (inactive) in assay [10]; 35.8 µM (inactive) in [11]. Also, the GI50 is 51.5 µM (inactive) in assay [12]; 51.4 µM (inactive) in assay [13]; 38.6 µM (inactive) in assay [14]; > 100 µM (inactive) in assay [15]; > 100 µM (inactive) in assay [16]; 17.2 µM (inactive) in assay [17]. Further, in assay [18], the GI50 is 44.5 µM (inactive).

As for `Nc1nc(S)c2c(N)n[nH]c2c1C(=O)Nc1ccc(Cl)cc1`, the GI50 in assay [1] was 60.3 µM (inactive); in assay [20], > 100 µM (inactive); in [3], 47 µM (inactive); in assay [4], 74.8 µM; in assay [5] it was 21.2 µM (inactive); in assay [6] it was 5.41 µM (inactive). The GI50 in assay [7] is 84.5 µM (inactive); in assay [8], > 100 µM (inactive); in assay [10], > 100 µM (inactive); in [11], 64.4 µM (inactive); in assay [12], > 100 µM (inactive); in assay [14] it was > 100 µM (inactive). Also, the GI50 is > 100 µM (inactive) in assay [15]; > 100 µM (inactive) in [16]; 24.3 µM (inactive) in assay [17]; > 100 µM (inactive) in [18]; 77.1 µM (inactive) in assay [19].

Consider `Cn1c(-c2c(C3=CC(=O)N(c4ccccc4)C3=O)c3ccccc3n2C)cc2ccccc21`, for which the GI50 in assay [1] was > 100 µM (inactive); in [2], 18.9 µM (inactive); in [20], > 100 µM (inactive); in assay [3] it was > 100 µM (inactive); in assay [4] it was over 100 µM; in assay [5], 45.1 µM (inactive). The GI50 in [6] is > 100 µM (inactive); in assay [7], > 100 µM (inactive); in assay [8] it was 58.7 µM (inactive); in assay [9], > 100 µM (inactive); in [10], > 100 µM (inactive); in assay [11], > 100 µM (inactive). The GI50 in assay [13] was 34.1 µM (inactive); in assay [14] it was > 100 µM (inactive); in assay [15] it was > 100 µM (inactive); in [16], 55.8 µM (inactive); in [17], 17.7 µM (inactive); in [18], > 100 µM (inactive). In assay [19], the GI50 is > 100 µM (inactive).

With `CN(C)/N=C1/CCC(C(F)(F)F)(C(F)(F)F)O1`, the GI50 in assay [1] was 41 µM (inactive); in assay [2], 30.2 µM (inactive); in assay [20], 16.7 µM (inactive); in assay [3], 47 µM (inactive); in assay [4], 41.4 µM; in [5], 28.3 µM (inactive). Besides, the GI50 in assay [6] is 33.6 µM (inactive); in assay [7], 27.5 µM (inactive); in [8], 37.2 µM (inactive); in [9], 37.4 µM (inactive); in [10], 26.6 µM (inactive); in assay [11], 47.6 µM (inactive). Moreover, the GI50 in assay [12] was 43.5 µM (inactive); in assay [13], 39.5 µM (inactive); in assay [14] it was 20.7 µM (inactive); in assay [15], 41.8 µM (inactive); in assay [16], 26.3 µM (inactive); in [17], 17.6 µM (inactive). The GI50 in assay [18] is 51.4 µM (inactive).

Take `C(=N\c1ccc(-c2nc3ccccc3s2)cc1)/c1ccc[nH]1`: the GI50 in [1] is 22.8 µM (inactive); in assay [2] it was 21.7 µM (inactive); in assay [20], 16.3 µM (inactive); in assay [3], 17.3 µM (inactive); in assay [4], 13.6 µM; in assay [5] it was 16.5 µM (inactive). Moreover, the GI50 in [6] was 17.3 µM (inactive); in assay [7], 19.2 µM (inactive); in assay [8] it was 11.7 µM (inactive); in assay [9] it was 16.8 µM (inactive); in assay [10], 13.3 µM (inactive); in [11] it was 23.8 µM (inactive). The GI50 in [12] is 15.5 µM (inactive); in assay [13] it was 13.3 µM (inactive); in assay [14] it was 17.3 µM (inactive); in assay [15], 29.4 µM (inactive); in assay [16], 22.2 µM (inactive); in assay [17] it was 21.4 µM (inactive). The GI50 is 31.8 µM (inactive) in assay [18] and 17.1 µM (inactive) in assay [19].

For the compound `CN(Cc1cnc2nc(N)nc(N)c2n1)c1ccc(C(=O)NC23CC4CC(CC(C4)C2)C3)cc1`, the GI50 is 12 µM (inactive) in [1]; 3.95 µM (inactive) in [2]; 10.4 µM (inactive) in [20]; 10.7 µM (inactive) in assay [3]; 4.71 µM in [4]; 12.2 µM (inactive) in assay [5]. Further, the GI50 is 5.48 µM (inactive) in assay [6]; 10.5 µM (inactive) in assay [7]; 6.68 µM (inactive) in assay [8]; 10.2 µM (inactive) in assay [9]; 42.8 µM (inactive) in assay [10]; 5.55 µM (inactive) in [12]. Further, the GI50 in [13] is 4.69 µM (inactive); in assay [14], 11.5 µM (inactive); in assay [15] it was 6.52 µM (inactive); in assay [16], 21.5 µM (inactive); in assay [17], 12.7 µM (inactive); in [18], 14.5 µM (inactive). The GI50 in assay [19] was 10.9 µM (inactive).

Consider `CC1=NN(c2cccc(Cl)c2)C2(C1=Cc1cccs1)C(Cl)C(=O)N2c1nc2ccccc2s1` (stereo unspecified), for which the GI50 in assay [1] was 23.5 µM (inactive); in assay [3], 33.8 µM (inactive); in assay [4], 20.6 µM; in assay [5], 25.6 µM (inactive); in assay [6] it was 19.6 µM (inactive); in [7] it was 30.4 µM (inactive). Moreover, the GI50 is 22.3 µM (inactive) in assay [8]; 21.3 µM (inactive) in [9]; 21.9 µM (inactive) in assay [10]; 28.9 µM (inactive) in assay [11]; 21.5 µM (inactive) in assay [12]; 19.6 µM (inactive) in [13]. For the same compound, the GI50 in [14] was 17.9 µM (inactive); in [16] it was 34.8 µM (inactive); in [17], 18.5 µM (inactive); in [18], 28.6 µM (inactive); in [19], 23.2 µM (inactive).

Regarding `Cc1cc(=O)oc2cc(SC(=O)N(C)C)ccc12`, the GI50 in [1] is > 100 µM (inactive); in assay [20], > 100 µM (inactive); in assay [3] it was > 100 µM (inactive); in assay [4], over 100 µM; in assay [5], > 100 µM (inactive); in assay [6], > 100 µM (inactive). Besides, the GI50 in assay [7], in assay [8], in [9], in [10], in assay [11] and in assay [12] was > 100 µM (inactive) throughout. Moreover, the GI50 in assay [13], in [14], in [15], in assay [16], in [17] and in assay [18] was > 100 µM (inactive) each time. Also, the GI50 in assay [19] was > 100 µM (inactive).

For the compound `COc1ccc(/C=C/[N+](=O)[O-])cc1`, the GI50 in assay [20] was 4.04 µM (inactive); in assay [3], 6.52 µM (inactive); in [4], 3.7 µM; in assay [5], 2.77 µM (inactive); in [6], 2.13 µM (inactive); in assay [7] it was 1.86 µM (inactive). Further, the GI50 in assay [8] was 2.8 µM (inactive); in assay [9] it was 9.75 µM (inactive); in assay [10], 30.7 µM (inactive); in assay [11], 16.7 µM (inactive); in assay [12], 2.92 µM (inactive); in assay [13], 2.62 µM (inactive). In addition, the GI50 was 20 µM (inactive) in assay [14]; 3.52 µM (inactive) in [15]; 14.9 µM (inactive) in assay [16]; 2.03 µM (inactive) in [17]; 13 µM (inactive) in assay [18]; 2.94 µM (inactive) in assay [19].

On to `CC1(C(=O)O)C[C@](C)(C(=O)OCc2ccccc2)C[C@](C)(C(=O)OCc2ccccc2)C1` (stereo partly specified), for which the GI50 was 25.4 µM (inactive) in assay [1]; 34.3 µM (inactive) in assay [2]; 18.5 µM (inactive) in assay [20]; 29.8 µM (inactive) in [3]; 25.5 µM in assay [4]; 22.4 µM (inactive) in assay [5]. In addition, the GI50 in [6] is 30.8 µM (inactive); in assay [7] it was 40.5 µM (inactive); in [8], 25.4 µM (inactive); in assay [9], 25.1 µM (inactive); in [10], 29.4 µM (inactive); in [11] it was 39.8 µM (inactive). Also, the GI50 is 47.9 µM (inactive) in assay [12]; 21.2 µM (inactive) in [13]; 17.5 µM (inactive) in assay [14]; 45.7 µM (inactive) in assay [15]; 13.7 µM (inactive) in assay [16]; 29.1 µM (inactive) in assay [17]. The GI50 in assay [18] was 43.3 µM (inactive); in assay [19] it was 38.9 µM (inactive).
